This assay deals with USP14 (Homo sapiens (Human), UniProt P54578). Kind of assay: USP14 Inhibition Assay. Type of assay: biochemical. Particulars: average value from a minimum of two experimental determinations; for IC50: read-out: IC50 Category. As to the method: Example 17: USP14 Inhibition Assay
“I” in the Table below designates an IC50 of >5 μM, “II” in the Table below designates and IC50 between 0.5 and 5 μM, and “III” designates an IC50<0.5 μM. The IC50 values in the Table below represent the average value from a minimum of two experimental determinations.

As a reminder, the IC50 is the concentration that inhibits the measured activity by half.

USP14, sequence (P54578 whole entry, looked up): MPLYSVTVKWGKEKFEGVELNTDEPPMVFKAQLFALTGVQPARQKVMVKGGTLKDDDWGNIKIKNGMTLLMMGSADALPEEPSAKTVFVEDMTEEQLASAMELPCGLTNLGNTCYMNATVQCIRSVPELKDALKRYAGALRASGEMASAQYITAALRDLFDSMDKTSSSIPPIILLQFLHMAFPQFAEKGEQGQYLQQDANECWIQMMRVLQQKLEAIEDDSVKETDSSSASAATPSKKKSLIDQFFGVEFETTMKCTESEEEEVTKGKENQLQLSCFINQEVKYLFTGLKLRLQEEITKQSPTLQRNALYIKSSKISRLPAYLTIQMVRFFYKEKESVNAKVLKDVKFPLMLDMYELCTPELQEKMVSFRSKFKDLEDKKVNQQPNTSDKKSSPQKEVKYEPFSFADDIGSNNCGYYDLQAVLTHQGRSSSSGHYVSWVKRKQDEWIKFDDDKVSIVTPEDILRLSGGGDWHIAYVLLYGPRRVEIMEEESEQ

For `CCNC(=O)/C=C/c1cnc2c(C(=O)CN3CCCCC3)c(C)n(-c3ccc(C#N)cc3)c2c1` [Compound 305, (E)-3-(1-(4-Cyanophenyl)-2-methyl-3-(2-(piperidin-1-yl)acetyl)-1H-pyrrolo[3,2-b]pyridin-6-yl)-N-ethylacrylamide], the IC50 was under 500 nM.

For the compound `CCN(CCc1cnc2c(C(=O)CN3CCCCC3)c(C)n(-c3ccc(Cl)cc3)c2c1)S(C)(=O)=O` [Compound 303, N-(2-(1-(4-Chlorophenyl)-2-methyl-3-(2-(piperidin-1-yl)acetyl)-1H-pyrrolo[3,2-b]pyridin-6-yl)ethyl)-N-ethylmethanesulfonamide], the IC50 is under 500 nM.

On to `CC(C)c1c(C(=O)CN2CCCCC2)c2ncccc2n1-c1ccc(C#N)cc1` [Compound 336], for which the IC50 is over 5000 nM.

Consider `Cc1c(C(=O)CN2CCC(CO)CC2)c2ncc(Br)cc2n1-c1ccc(C#N)cc1` [Compound 312], for which the IC50 fell in the range of 500 to 5000 nM.

Turning to `Cc1c(C(=O)CN2CCCCC2)c2ccc(CC(=O)O)cc2n1-c1ccc(C#N)cc1` [Compound 198, 2-(1-(4-Cyanophenyl)-2-methyl-3-(2-(piperidin-1-yl)acetyl)-1H-indol-6-yl)acetic Acid], the IC50 was under 500 nM.

`Cc1c(C(=O)CN2CCCCC2(C)C)c2ncc(Br)cc2n1-c1ccc(C#N)cc1` [Compound 318]: the IC50 was under 500 nM.

Turning to `Cc1c(C(=O)CN2CCCCC2)c2ncc(Cl)cc2n1-c1ccc(C#N)cc1` [Compound 385], the IC50 was under 500 nM.

In the case of `COc1cccc2c1c(C(=O)CN1CCCCC1)c(C)n2-c1ccc(C#N)cc1` [Compound 167], the half-maximal inhibitory concentration (IC50) is under 500 nM.

Turning to `Cc1c(C(=O)CN2CCCCC2)c2ccc(CCO)cc2n1-c1ccc(C#N)cc1` [Compound 207, 4-(6-(2-Hydroxyethyl)-2-methyl-3-(2-(piperidin-1-yl)acetyl)-1H-indol-1-yl)benzonitrile], the IC50 was under 500 nM.

Take `Cc1c(C(=O)CN2[C@@H](C)CCC[C@@H]2C)c2ncc(Br)cc2n1-c1ccc(C#N)cc1` [Compound 374]: the IC50 was in the range of 500 to 5000 nM.

Turning to `Cc1c(C(O)CN2CCCCC2)c2ccc(CO)cc2n1-c1ccc(Cl)cc1` (centres unmarked) [Compound 130, 1-(1-(4-Chlorophenyl)-6-(hydroxymethyl)-2-methyl-1H-indol-3-yl)-2-(piperidin-1-yl)ethan-1-ol], the IC50 is over 5000 nM.

Regarding `Cc1c(C(=O)CN2CCCCC2)c2ccc(C(C)C)cc2n1-c1ccc(C#N)cc1` [Compound 180, 4-(6-Isopropyl-2-methyl-3-(2-(piperidin-1-yl)acetyl)-1H-indol-1-yl)benzonitrile], the IC50 was under 500 nM.

`Cc1c(C(=O)CN2CCC(CN(C)C)CC2)c2ncc(Br)cc2n1-c1ccc(C#N)cc1` [Compound 352]: the IC50 was under 500 nM.

On to `Cc1c(C(=O)CN2CCC(CC(=O)O)CC2)c2ncc(Br)cc2n1-c1ccc(Cl)cc1` [Compound 371], for which the IC50 is over 5000 nM.

Turning to `Cc1c(C(=O)CN2CCOCC2)c2ncc(Br)cc2n1-c1ccc(C#N)cc1` [Compound 329], the IC50 is over 5000 nM.

Take `Cc1c(C(=O)CN2CCCCC2)c2ccc(O)cc2n1-c1ccc(Cl)cc1` [Compound 148, 1-(1-(4-Chlorophenyl)-6-hydroxy-2-methyl-1H-indol-3-yl)-2-(piperidin-1-yl)ethan-1-one]: the IC50 lay within 500 to 5000 nM.

`Cc1c(C(=O)CN2CCCCC2)c2c(F)cccc2n1-c1ccc(C#N)cc1` [Compound 168]: the IC50 was under 500 nM.

`Cc1c(C(=O)CN2CCCCC2)c2ncc(CC(=O)N3CCCC3)cc2n1-c1ccc(C#N)cc1` [Compound 298, 4-(2-Methyl-6-(2-oxo-2-(pyrrolidin-1-yl)ethyl)-3-(2-(piperidin-1-yl)acetyl)-1H-pyrrolo[3,2-b]pyridin-1-yl)benzonitrile]: the IC50 is under 500 nM.

For `Cc1c(C(=O)CN2CC3(COC3)C2)c2ncc(Br)cc2n1-c1ccc(C#N)cc1` [Compound 343], the half-inhibitory concentration (IC50) is over 5000 nM.

For `Cc1c(C(=O)CN2CCC[C@H]2C)c2ncc(Br)cc2n1-c1ccc(C#N)cc1` [Compound 306], the “IC50 Category” value is “IIII”.

For the compound `COCCOc1cnc2c(C(=O)CN3CCC(OC)CC3)c(C)n(-c3ccc(Cl)cc3)c2c1` [Compound 363], the concentration for half-maximal inhibition (IC50) was under 500 nM.

`CCOC(=O)CNCC1CCN(CC(=O)c2c(C)n(-c3ccc(C#N)cc3)c3cc(Br)cnc23)CC1` [Compound 368]: the IC50 was 500 to 5000 nM.

On to `Cc1c(C(=O)CN2CCC(O)CC2)c2ccccc2n1-c1ncc(Cl)cn1` [Compound 400], for which the IC50 was over 5000 nM.

As for `O=C(CN1CCCCC1)c1cn(-c2ccc(Cl)cc2)c2cc(CO)ccc12` [Compound 115, 1-(1-(4-Chlorophenyl)-6-(hydroxymethyl)-1H-indol-3-yl)-2-(piperidin-1-yl)ethan-1-one], the IC50 is over 5000 nM.

On to `COc1cnc2c(C(=O)CN3CCC(CN)CC3)c(C)n(-c3ccc(C#N)cc3)c2c1` [Compound 369], for which the IC50 was under 500 nM.

As to `Cc1c(C(=O)CN2CCSCC2)c2ncc(Br)cc2n1-c1ccc(C#N)cc1` [Compound 331], the IC50 was under 500 nM.

`Cc1c(C(=O)CN2CCC(O)CC2)c2ccccc2n1-c1ccc(C#N)nc1` [Compound 393]: the IC50 lay in the range of 500 to 5000 nM.

Take `COC(=O)c1ccc2c(C(=O)CN3CCCCC3)c(C)n(-c3ccc(Cl)cc3)c2c1` [Compound 171]: the IC50 is under 500 nM.

Consider `O=C(CN1CCC(O)CC1)c1cn(-c2ccc(Cl)cc2)c2ccccc12` [Compound 30], for which the IC50 was over 5000 nM.

For `CNCc1ccc2c(C(=O)CN3CCCCC3)cn(-c3ccc(Cl)cc3)c2c1` [Compound 119, 1-(1-(4-Chlorophenyl)-6-((methylamino)methyl)-1H-indol-3-yl)-2-(piperidin-1-yl)ethan-1-one], the IC50 was over 5000 nM.

Take `Cc1c(C(=O)CN2[C@H](C)CCC[C@H]2C)c2ncc(Br)cc2n1-c1ccc(C#N)cc1` [Compound 373]: the IC50 is 500 to 5000 nM.

Take `Cc1c(C(=O)CN2CCC2)c2ncc(Br)cc2n1-c1ccc(C#N)cc1` [Compound 325]: the IC50 was over 5000 nM.

On to `N#Cc1ccc(-n2c(C(F)(F)F)c(C(=O)CN3CCCCC3)c3ncccc32)cc1` [Compound 372], for which the IC50 is over 5000 nM.

For the compound `Cc1c(C(=O)CN2CCC(O)CC2)c2ccc(F)cc2n1-c1ccc(Cl)cc1` [Compound 394], the IC50 was over 5000 nM.

In the case of `CC(=O)OCCc1ccc2c(C(=O)CN3CCCCC3)c(C)n(-c3ccc(C#N)cc3)c2c1` [Compound 205, 2-(1-(4-Cyanophenyl)-2-methyl-3-(2-(piperidin-1-yl)acetyl)-1H-indol-6-yl)ethyl Acetate], the IC50 was under 500 nM.

Consider `Cc1c(C(=O)CN2CCC(O)CC2)c2ccccc2n1-c1ccc(F)c(F)c1` [Compound 391], for which the IC50 lay in the range of 500 to 5000 nM.

`Cc1c(C(=O)CN2CCCCC2)c2ncc(CCN3CCCC3)cc2n1-c1ccc(Cl)cc1` [Compound 346, 1-(1-(4-Chlorophenyl)-2-methyl-6-(2-(pyrrolidin-1-yl)ethyl)-1H-pyrrolo[3,2-b]pyridin-3-yl)-2-(piperidin-1-yl)ethan-1-one]: the IC50 was under 500 nM.

In the case of `Cc1c(C(=O)CN2CCC(O)CC2)c2ncc(CCNS(C)(=O)=O)cc2n1-c1ccc(Cl)cc1` [Compound 342, N-(2-(1-(4-Chlorophenyl)-3-(2-(4-hydroxypiperidin-1-yl)acetyl)-2-methyl-1H-pyrrolo[3,2-b]pyridin-6-yl)ethyl)methanesulfonamide], the IC50 was under 500 nM.

The values above are taken from patent publication US11242361B2 (Proteostasis Therapeutics, Inc., priority 2013, dated 2022).
